Data set [1] addresses T1, Prostaglandin G/H synthase 1 (Ovis aries, UniProt P05979).
T1 sequence (P05979 whole entry): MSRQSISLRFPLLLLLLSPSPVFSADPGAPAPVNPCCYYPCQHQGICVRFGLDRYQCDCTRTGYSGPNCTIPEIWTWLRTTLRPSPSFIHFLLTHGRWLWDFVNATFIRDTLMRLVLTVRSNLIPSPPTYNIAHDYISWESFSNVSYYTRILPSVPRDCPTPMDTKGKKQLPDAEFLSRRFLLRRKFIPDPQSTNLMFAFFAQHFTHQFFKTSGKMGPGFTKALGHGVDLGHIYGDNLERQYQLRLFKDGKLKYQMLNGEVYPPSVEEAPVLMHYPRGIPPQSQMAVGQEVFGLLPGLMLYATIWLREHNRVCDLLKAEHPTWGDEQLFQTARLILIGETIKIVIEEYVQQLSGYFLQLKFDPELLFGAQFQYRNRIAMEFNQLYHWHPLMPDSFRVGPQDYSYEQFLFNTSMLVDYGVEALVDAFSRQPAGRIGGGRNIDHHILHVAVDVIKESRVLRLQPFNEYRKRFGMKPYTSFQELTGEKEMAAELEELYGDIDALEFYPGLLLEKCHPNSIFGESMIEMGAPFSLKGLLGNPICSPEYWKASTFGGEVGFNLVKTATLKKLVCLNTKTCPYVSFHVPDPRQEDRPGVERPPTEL
Briefly: Inhibition of ovine COX-1 assessed as reduction of prostaglandin-G2 to prostaglandin-H2 by measuring oxidation of 10-acetyl-3,7-dihydroxyphenoxazine to resorufin after 5 mins by fluorescence based assay.

The target in data set [2] is T2, Prostaglandin G/H synthase 2 (Homo sapiens, UniProt P35354).
T2 sequence (P35354 whole entry): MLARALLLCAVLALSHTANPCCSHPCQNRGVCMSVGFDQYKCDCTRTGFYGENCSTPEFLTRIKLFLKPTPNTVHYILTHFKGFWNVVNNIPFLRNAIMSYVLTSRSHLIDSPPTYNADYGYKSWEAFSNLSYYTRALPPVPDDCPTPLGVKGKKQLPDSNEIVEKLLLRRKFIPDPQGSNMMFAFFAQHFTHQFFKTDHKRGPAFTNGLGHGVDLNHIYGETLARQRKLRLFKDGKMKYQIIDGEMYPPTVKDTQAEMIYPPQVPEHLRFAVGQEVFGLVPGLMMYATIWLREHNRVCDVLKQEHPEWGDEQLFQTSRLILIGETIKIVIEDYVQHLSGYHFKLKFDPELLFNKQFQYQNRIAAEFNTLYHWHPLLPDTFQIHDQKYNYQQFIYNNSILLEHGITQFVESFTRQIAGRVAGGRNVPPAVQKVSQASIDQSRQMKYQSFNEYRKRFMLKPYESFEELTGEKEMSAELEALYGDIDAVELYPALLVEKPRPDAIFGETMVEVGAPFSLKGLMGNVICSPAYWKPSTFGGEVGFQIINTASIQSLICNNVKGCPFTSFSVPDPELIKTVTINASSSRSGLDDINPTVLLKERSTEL

The nature of data set [3]: Selectivity index, ratio of IC50 for ovine COX-1 to IC50 for recombinant human COX-2.
The nature of data set [4]: Solubility of compound in normal saline. It counts as physicochemical.
Data set [5] can be described thus: Dissociation constant, pKa of compound. The data set is classed as physicochemical.

As usually defined, the IC50 is the concentration that gives 50% inhibition. In general, solubility refers to the concentration that dissolves in the medium under given conditions. A higher solubility goes with a readily soluble substance. The pKa is the pH at which an ionisable group is half protonated. Read a low pKa as a stronger acid or weaker base.

Take `CS(=O)(=O)c1ccc(-c2conc2-c2ccccc2)cc1`: the values for the concentration for half-maximal inhibition (IC50) in data set [1] and in data set [2] were more than 100 µM and 0.247 µM, respectively. Moreover, the Ratio IC50 in data set [3] is more than 400.

Consider `COC(=O)c1onc(-c2ccc(F)cc2)c1-c1ccc(S(C)(=O)=O)cc1`, for which the IC50 in data set [1] and in data set [2] was more than 100 µM each time.

Consider `CS(=O)(=O)c1ccc(-c2cc(-c3ccc(F)cc3)no2)cc1`, for which the IC50 in data set [1] and in data set [2] was more than 100 µM in each case.

On to `NS(=O)(=O)c1ccc(-c2conc2-c2ccc(F)cc2)cc1`, for which the results for the IC50 in data set [1] and in data set [2] were more than 100 µM and 0.042 µM, respectively. The Ratio IC50 in data set [3] was more than 2400.

As for `CC(=O)c1onc(-c2ccc(F)cc2)c1-c1ccc(S(C)(=O)=O)cc1`, the 50% inhibitory concentration (IC50) in data set [1] and in data set [2] was more than 100 µM in each case.

Take `CS(=O)(=O)c1ccc(-c2cc(-c3ccccc3)no2)cc1`: the concentration for half-maximal inhibition (IC50) was more than 100 µM in data set [1] and 13.5 µM in data set [2]. Moreover, the Ratio IC50 in data set [3] was more than 7.4.

Consider `C[Si](C)(C)c1c(-c2ccc(F)cc2)noc1-c1ccc(S(C)(=O)=O)cc1`, for which the IC50 in data set [1] and in data set [2] was more than 100 µM in each case.

With `C[Si](C)(C)c1onc(-c2ccccc2)c1-c1ccc(S(N)(=O)=O)cc1`, the results for the IC50 in data set [1] and in data set [2] were more than 100 µM and 0.13 µM, respectively. In addition, the Ratio IC50 in data set [3] is more than 770.

For `Cc1onc(-c2ccc(F)cc2)c1-c1ccc(S(N)(=O)=O)cc1`, the values for the 50% inhibitory concentration (IC50) in data set [1] and in data set [2] were more than 100 µM and 0.073 µM, respectively. The Ratio IC50 in data set [3] was more than 1400.

`CS(=O)(=O)c1ccc(-c2c(-c3ccc(F)cc3)noc2C(=O)c2ccccc2)cc1`: the IC50 in data set [1] and in data set [2] was more than 100 µM throughout.

In the case of `C[Si](C)(C)c1onc(-c2ccc(F)cc2)c1-c1ccc(S(N)(=O)=O)cc1`, the 50% inhibitory concentration (IC50) is more than 100 µM in data set [1] and 0.93 µM in data set [2]. The Ratio IC50 in data set [3] was more than 110.

Regarding `NS(=O)(=O)c1ccc(-c2cc(-c3ccccc3)no2)cc1`, the IC50 was more than 100 µM in data set [1] and 10.8 µM in data set [2]. In addition, in data set [3], the Ratio IC50 was more than 9.3.

Consider `CCC(=O)NS(=O)(=O)c1ccc(-c2c(-c3ccccc3)noc2C)cc1` [PARECOXIB], for which the solubility in data set [4] is more than 50 mg/mL.

For `CS(=O)(=O)c1ccc(-c2c(-c3ccc(F)cc3)noc2C(F)(F)F)cc1`, the results for the IC50 in data set [1] and in data set [2] were more than 100 µM and 8.14 µM, respectively. For the same compound, in data set [3], the Ratio IC50 is more than 12.

With `C[Si](C)(C)c1c(-c2ccccc2)noc1-c1ccc(S(N)(=O)=O)cc1`, the IC50 in data set [1] is more than 100 µM; in data set [2] it was 11.1 µM. Further, the Ratio IC50 in data set [3] was more than 9.

Regarding `C[Si](C)(C)c1onc(-c2ccc(F)cc2)c1-c1ccc(S(C)(=O)=O)cc1`, the IC50 in data set [1] was more than 100 µM; in data set [2], 1.87 µM. Also, the Ratio IC50 in data set [3] was more than 54.

Take `C[Si](C)(C)c1onc(-c2ccccc2)c1-c1ccc(S(C)(=O)=O)cc1`: the IC50 in data set [1] was more than 100 µM; in data set [2], 4.17 µM. The Ratio IC50 in data set [3] worked out at 23.9.

As for `CS(=O)(=O)c1ccc(-c2conc2-c2ccc(F)cc2)cc1`, the figures for the IC50 in data set [1] and in data set [2] were more than 100 µM and 0.057 µM, respectively. Further, in data set [3], the Ratio IC50 is more than 1800.

Consider `NS(=O)(=O)c1ccc(-c2cc(-c3ccc(F)cc3)no2)cc1`, for which the half-inhibitory concentration (IC50) in data set [1] is more than 100 µM; in data set [2] it was 81.2 µM. In data set [3], the Ratio IC50 was more than 1.2.

As for `NS(=O)(=O)c1ccc(-c2conc2-c2ccccc2)cc1`, the IC50 in data set [1] is more than 100 µM; in data set [2], 0.048 µM. Further, the Ratio IC50 in data set [3] was more than 2100.

With `C[Si](C)(C)c1c(-c2ccccc2)noc1-c1ccc(S(C)(=O)=O)cc1`, the IC50 in data set [1] and in data set [2] was more than 100 µM throughout.

`Cc1onc(-c2ccccc2)c1-c1ccc(S(N)(=O)=O)cc1` [VALDECOXIB] gave a solubility in data set [4] of 10 mM. The pKa in data set [5] turned out to be 9.8.

For the compound `CS(=O)(=O)c1ccc(-c2c(-c3ccc(F)cc3)noc2Cl)cc1`, the values for the IC50 in data set [1] and in data set [2] were 10.1 µM and 0.351 µM, respectively. Besides, the Ratio IC50 in data set [3] was found to be 28.7.

Turning to `C[Si](C)(C)c1c(-c2ccc(F)cc2)noc1-c1ccc(S(N)(=O)=O)cc1`, the IC50 in data set [1] is more than 100 µM; in data set [2], 38.2 µM. In addition, the Ratio IC50 in data set [3] was more than 2.6.

Consider `CS(=O)(=O)c1ccc(-c2c(-c3ccc(F)cc3)noc2C=O)cc1`, for which the IC50 in data set [1] is more than 100 µM; in data set [2] it was 13.8 µM. In data set [3], the Ratio IC50 is more than 7.

The record behind these values is ChEMBL document CHEMBL4261574 (Medchemcomm, 2018).
